Tests used:
ceramide neutralization = assay: Decitabine treatment of FLT3^ITD transgenic mice, gene expression by qRT-PCR; format: in vivo
Experimental: Decitabine treatment downregulates ceramide neutralization in FLT3^ITD transgenic mice while augmenting gdf1 expression. 8-12 week old mice harboring an internal tandem duplication in the Flt3 gene were treated with the hypomethylating agent, decitabine, at 0.2 mg/kg, 3 times weekly, for 6 weeks. Results were generated using qRT-PCR and normalized to housekeeping genes (Actb, RpII, Tbp). […] Treatment with decitabine reversed ugcg expression and led to downregulation of cers1 as compared to control mice. […] As expected, other related genes are also affected by decitabine treatment.
Hypomethylating Treatment Reverses the Effect of Leukemogenic Transgenes on Ceramide Detoxification. Myeloid hematological malignancies such as AML and myelodysplastic syndrome (MDS) are frequently treated with hypomethylating agents such as decitabine. In particular, treatment and management of MDS commonly utilizes these strategies to attempt to prevent the transformation of this bone marrow failure-like condition to AML. In this experiment, we utilized aged FLT3^ITD transgenic mice treated with/without decitabine and monitored the changes to the expression of genes in the bone marrow that regulate the production of bioactive sphingolipids.

[1] = system: AML cell lines (HL-60, Kasumi-1 and Kasumi-3); assay: Gdf1 treatment of AML cell lines, gene expression by qRT-PCR; format: cell-based; conditions: 50 ng/mL, 24 hours; HL-60, Kasumi-1, Kasumi-3; compared to untreated counterparts
Experimental: Gdf1 treatment of AML cell lines triggers downregulation of ceramide neutralization pathways. AML cell lines (HL-60, Kasumi-1 and Kasumi-3), were treated with recombinant human gdf1 at a concentration of 50 ng/mL for 24 hours. Results were obtained via qRT-PCR and compared to housekeeping genes (Actb, RpII).

[2] = system: hematopoietic progenitor cells; assay: Gdf1 treatment of bone marrow, flow cytometry immunophenotyping of LT-HSC and MPP; format: cell-based; conditions: 50 ng/mL, 24 hours; bone marrow of hybrid mice
Experimental: Gdf1 treatment promotes quiescence exit of hematopoietic progenitor cells. Bone marrow of hybrid mice was treated with human recombinant Gdf1 at a concentration of 50 ng/mL for 24 hours. Flow cytometry was used in immunophenotyping cells into subpopulations of long-term hematopoietic stem cells (LT-HSC) and multipotent progenitor cells (MPP). LT-HSCs were defined as Lin−, C-kit+, Sca-1+, CD150+, CD48−. MPPs were defined as Lin−, C-kit+, Sca-1+, CD150−, CD48−. Quiescent cells were defined as CD34+.

Molecule: Nc1ncn([C@H]2C[C@H](O)[C@@H](CO)O2)c(=O)n1 [decitabine, 5-aza-2′-deoxycytidine]
- gdf1 expression (ceramide neutralization; FLT3^ITD mice, decitabine 0.2 mg/kg, 3 times weekly, 6 weeks): upregulated
- cers1 expression (ceramide neutralization; FLT3^ITD mice, decitabine 0.2 mg/kg, 3 times weekly, 6 weeks, compared to control mice): downregulation
- ugcg expression (ceramide neutralization; FLT3^ITD mice, decitabine 0.2 mg/kg, 3 times weekly, 6 weeks, qRT-PCR normalized to Actb, RpII, Tbp): reversed
- relationship between gdf1 and either ugcg or sgms1 expression (ceramide neutralization; bone marrow of aged FLT3^ITD transgenic mice treated with/without decitabine): inverse relationship

B1: Gdf1: Recombinant human Growth Differentiation Factor 1, a BMP family member and TGF-beta signaling pathway intermediate (protein, listed as Homo sapiens)
chain: MPPPQQGPCGHHLLLLLALLLPSLPLTRAPVPPGPAAALLQALGLRDEPQGAPRLRPVPPVMWRLFRRRDPQETRSGSRRTSPGVTLQPCHVEELGVAGNIVRHIPDRGAPTRASEPASAAGHCPEWTVVFDLSAVEPAERPSRARLELRFAAAAAAAPEGGWELSVAQAGQGAGADPGPVLLRQLVPALGPPVRAELLGAAWARNASWPRSLRLALALRPRAPAACARLAEASLLLVTLDPRLCHPLARPRRDAEPVLGGGPGGACRARRLYVSFREVGWHRWVIAPRGFLANYCQGQCALPVALSGSGGPPALNHAVLRALMHAAAPGAADLPCCVPARLSPISVLFFDNSDNVVLRQYEDMVVDECGCR
- cers1 expression [1]: downregulated
- ugcg expression [1]: downregulated
- cells bearing the CD34 marker (quiescent cells) in LT-HSC and MPP populations [2]: decrease
- population of MPPs in the overall pool of analyzed cells [2]: increase
